What is called logP is a log measure of how a compound divides between an organic and an aqueous phase. Read a high logP as higher lipophilicity. Take `COc1ccccc1N1CCNCC1`: the lipophilicity (logP) worked out at 1.09.
The compound `Clc1ccccc1N1CCNCC1` had a logP of 2.13.
The compound `Fc1ccc(N2CCNCC2)cc1` displayed a lipophilicity (logP) of 1.28.
Under `Clc1cccc(N2CCNCC2)c1` stands 2.11; under `Clc1ccc(N2CCNCC2)cc1`, 2.01.
The compound `c1csc(N2CCNCC2)n1` yielded a logP of 0.61.
As for `c1ccc2c(N3CCNCC3)nsc2c1`, the figure is 2.14; as for `FC(F)(F)c1cccc(N2CCNCC2)c1`, 2.43; as for `Fc1cnc(N2CCNCC2)nc1`, 0.97.
Turning to `Cc1ccccc1N1CCNCC1`, the logP was determined as 2.14.
In turn, `c1ccc2nc(N3CCNCC3)ccc2c1` registered a logP of 2.04.
Under `c1cnc(N2CCNCC2)nc1` stands 0.49; under `c1ccc(N2CCNCC2)nc1`, 0.74.

These data come from the SangsterLogP compilation.
